Legend:
[1] = biological target: KRAS G12C (Homo sapiens, UniProt P01116, G12C); experiment: Selectivity panel (Table 3); type: binding
[2] = biological target: T1, BRD2-BD2 (Homo sapiens, UniProt P25440); experiment: Selectivity panel (Table 3); type: binding
T1 construct: BRD2-BD2

[3] = biological target: T2, BRD3-BD1 (Homo sapiens, UniProt Q15059); experiment: Selectivity panel (Table 3); type: binding
T2 construct: BRD3-BD1

[4] = biological target: SHP2 D61G (Homo sapiens, UniProt Q06124, D61G); experiment: Selectivity panel (Table 3); type: biochemical
[5] = biological target: HDAC3 (Homo sapiens, UniProt O15379); experiment: Selectivity panel (Table 3); type: biochemical
[6] = biological target: ATX (Homo sapiens, UniProt Q13822); experiment: Selectivity panel (Table 3); type: biochemical
[7] = Liver S9 stability assay; type: in vitro ADME, mouse
Description: Liver S9 stability assay: Test compounds (1 μM) and positive control were incubated with 5 mM GSH and liver S9 (1 mg protein/ml) from multiple species (including human, monkey, dog, rat and mouse) at 37° C. at 0, 10, 30, and 60 minutes in duplicate. After adding the stop solution, 100 μL of supernatant were analyzed by LC-MS/MS. The % remaining of test compound, T1/2 (min), and CLint (μL/min/mg) were calculated and were reported.

[8] = biological target: T3, BRD4-BD1 (Homo sapiens, UniProt O60885); experiment: Selectivity panel (Table 3); type: binding
T3 construct: BRD4-BD1

[9] = Metabolite ID in plasma; type: in vitro ADME; details: HBI-2375 and metabolites in Dog plasma
[10] = biological target: TEAD3 (Homo sapiens, UniProt Q99594); experiment: Selectivity panel (Table 3); type: binding
[11] = biological target: KRAS G12V (Homo sapiens, UniProt P01116, G12V); experiment: Selectivity panel (Table 3); type: binding
[12] = biological target: MALTI (Homo sapiens, UniProt Q9UDY8); experiment: Selectivity panel (Table 3); type: biochemical
[13] = biological target: POLQPolymerase (Homo sapiens, UniProt O75417); experiment: Selectivity panel (Table 3); type: biochemical
[14] = biological target: KRAS WT (Homo sapiens, UniProt P01116); experiment: Selectivity panel (Table 3); type: binding
[15] = Metabolite ID in Liver S9; type: in vitro ADME; details: HBI-2375 and metabolites in Monkey liver S9
[16] = biological target: PD-1/PD-L1 (Homo sapiens, UniProt Q9NZQ7); experiment: Selectivity panel (Table 3); type: binding
[17] = Dog PK (oral); type: in vivo, Beagle dogs; details: for Cmax / AUC(0-t) / half-life: Beagle, plasma
Description: Dog PK: Fasted or fed non-naïve Beagle dogs (Marshall Bioresources, Beijing, China) were administered a single intravenous bolus or oral gavage administration of test compounds at respective doses. Blood samples for plasma isolation were collected from a peripheral vessel, from restrained, non-sedated animals at the respective sampling time points. The quantification of compound concentrations in dog plasma was quantified using LC-MS/MS method. Plasma concentration versus time data was analyzed by non-compartmental mode approaches using the WinNonlin software program (version 6.3 or above, Pharsight). Pharmacokinetic parameters, including C0, CL, Vdss, Cmax, Tmax T1/2, AUC0-last, AUC0-inf, MRT0-last, MRT0-inf, bioavailability (%) for IV and PO groups were calculated. See FIGS. 9A, […], 9C and FIGS. 10A, 10B, 10C, and 10D.

[18] = Mouse PK (oral); type: in vivo, C57/B16 mice; details: for Cmax: plasma; for AUC(0-t) / half-life: C57/B16, plasma
Description: Mouse PK: Animals were dosed with a single intravenous bolus or oral gavage administration in naïve C57/B16 mice (Beijing Vital River Laboratory Animal Co., LTD). Blood samples were collected at the respective sampling time points. The quantification of compound concentrations in mouse or rat plasma was quantified using LC-MS/MS method. Plasma concentration versus time data was analyzed by non-compartmental mode approaches using the WinNonlin software program (version 6.3 or above, Pharsight). Pharmacokinetic parameters, including C0 (initial concentration after drug administration), […], Vdss (volume of distribution), Cmax (maximum peak concentration of the drug), Tmax (time required to reach Cmax) T1/2 (time required for drug concentration to decrease by 50% after administration), AUC0-last (area under the concentration-time curve from dosing time t=0 to the time of the last measured concentration), AUC0-inf (total drug exposure across time), MRT0-last (mean residence time from dosing time t=0 to the time of the last measured concentration), MRT0-inf f (mean residence time of total drug exposure), bioavailability (%) (the percentage (or the fraction F) of an administered drug dose that reaches the systemic circulation) for IV and PO groups were calculated. See Table 7 and FIGS. 6A, 6B, 6C and 6D.

[19] = biological target: CD73 (Homo sapiens, UniProt P21589); experiment: Selectivity panel (Table 3); type: biochemical
[20] = biological target: T4, BRD2-BD1 (Homo sapiens, UniProt P25440); experiment: Selectivity panel (Table 3); type: binding
T4 construct: BRD2-BD1

[21] = biological target: HDAC8 (Homo sapiens, UniProt Q9BY41); experiment: Selectivity panel (Table 3); type: biochemical
[22] = in vitro; details: cynomolgus monkey, plasma

Chain of POLQPolymerase (O75417 whole entry): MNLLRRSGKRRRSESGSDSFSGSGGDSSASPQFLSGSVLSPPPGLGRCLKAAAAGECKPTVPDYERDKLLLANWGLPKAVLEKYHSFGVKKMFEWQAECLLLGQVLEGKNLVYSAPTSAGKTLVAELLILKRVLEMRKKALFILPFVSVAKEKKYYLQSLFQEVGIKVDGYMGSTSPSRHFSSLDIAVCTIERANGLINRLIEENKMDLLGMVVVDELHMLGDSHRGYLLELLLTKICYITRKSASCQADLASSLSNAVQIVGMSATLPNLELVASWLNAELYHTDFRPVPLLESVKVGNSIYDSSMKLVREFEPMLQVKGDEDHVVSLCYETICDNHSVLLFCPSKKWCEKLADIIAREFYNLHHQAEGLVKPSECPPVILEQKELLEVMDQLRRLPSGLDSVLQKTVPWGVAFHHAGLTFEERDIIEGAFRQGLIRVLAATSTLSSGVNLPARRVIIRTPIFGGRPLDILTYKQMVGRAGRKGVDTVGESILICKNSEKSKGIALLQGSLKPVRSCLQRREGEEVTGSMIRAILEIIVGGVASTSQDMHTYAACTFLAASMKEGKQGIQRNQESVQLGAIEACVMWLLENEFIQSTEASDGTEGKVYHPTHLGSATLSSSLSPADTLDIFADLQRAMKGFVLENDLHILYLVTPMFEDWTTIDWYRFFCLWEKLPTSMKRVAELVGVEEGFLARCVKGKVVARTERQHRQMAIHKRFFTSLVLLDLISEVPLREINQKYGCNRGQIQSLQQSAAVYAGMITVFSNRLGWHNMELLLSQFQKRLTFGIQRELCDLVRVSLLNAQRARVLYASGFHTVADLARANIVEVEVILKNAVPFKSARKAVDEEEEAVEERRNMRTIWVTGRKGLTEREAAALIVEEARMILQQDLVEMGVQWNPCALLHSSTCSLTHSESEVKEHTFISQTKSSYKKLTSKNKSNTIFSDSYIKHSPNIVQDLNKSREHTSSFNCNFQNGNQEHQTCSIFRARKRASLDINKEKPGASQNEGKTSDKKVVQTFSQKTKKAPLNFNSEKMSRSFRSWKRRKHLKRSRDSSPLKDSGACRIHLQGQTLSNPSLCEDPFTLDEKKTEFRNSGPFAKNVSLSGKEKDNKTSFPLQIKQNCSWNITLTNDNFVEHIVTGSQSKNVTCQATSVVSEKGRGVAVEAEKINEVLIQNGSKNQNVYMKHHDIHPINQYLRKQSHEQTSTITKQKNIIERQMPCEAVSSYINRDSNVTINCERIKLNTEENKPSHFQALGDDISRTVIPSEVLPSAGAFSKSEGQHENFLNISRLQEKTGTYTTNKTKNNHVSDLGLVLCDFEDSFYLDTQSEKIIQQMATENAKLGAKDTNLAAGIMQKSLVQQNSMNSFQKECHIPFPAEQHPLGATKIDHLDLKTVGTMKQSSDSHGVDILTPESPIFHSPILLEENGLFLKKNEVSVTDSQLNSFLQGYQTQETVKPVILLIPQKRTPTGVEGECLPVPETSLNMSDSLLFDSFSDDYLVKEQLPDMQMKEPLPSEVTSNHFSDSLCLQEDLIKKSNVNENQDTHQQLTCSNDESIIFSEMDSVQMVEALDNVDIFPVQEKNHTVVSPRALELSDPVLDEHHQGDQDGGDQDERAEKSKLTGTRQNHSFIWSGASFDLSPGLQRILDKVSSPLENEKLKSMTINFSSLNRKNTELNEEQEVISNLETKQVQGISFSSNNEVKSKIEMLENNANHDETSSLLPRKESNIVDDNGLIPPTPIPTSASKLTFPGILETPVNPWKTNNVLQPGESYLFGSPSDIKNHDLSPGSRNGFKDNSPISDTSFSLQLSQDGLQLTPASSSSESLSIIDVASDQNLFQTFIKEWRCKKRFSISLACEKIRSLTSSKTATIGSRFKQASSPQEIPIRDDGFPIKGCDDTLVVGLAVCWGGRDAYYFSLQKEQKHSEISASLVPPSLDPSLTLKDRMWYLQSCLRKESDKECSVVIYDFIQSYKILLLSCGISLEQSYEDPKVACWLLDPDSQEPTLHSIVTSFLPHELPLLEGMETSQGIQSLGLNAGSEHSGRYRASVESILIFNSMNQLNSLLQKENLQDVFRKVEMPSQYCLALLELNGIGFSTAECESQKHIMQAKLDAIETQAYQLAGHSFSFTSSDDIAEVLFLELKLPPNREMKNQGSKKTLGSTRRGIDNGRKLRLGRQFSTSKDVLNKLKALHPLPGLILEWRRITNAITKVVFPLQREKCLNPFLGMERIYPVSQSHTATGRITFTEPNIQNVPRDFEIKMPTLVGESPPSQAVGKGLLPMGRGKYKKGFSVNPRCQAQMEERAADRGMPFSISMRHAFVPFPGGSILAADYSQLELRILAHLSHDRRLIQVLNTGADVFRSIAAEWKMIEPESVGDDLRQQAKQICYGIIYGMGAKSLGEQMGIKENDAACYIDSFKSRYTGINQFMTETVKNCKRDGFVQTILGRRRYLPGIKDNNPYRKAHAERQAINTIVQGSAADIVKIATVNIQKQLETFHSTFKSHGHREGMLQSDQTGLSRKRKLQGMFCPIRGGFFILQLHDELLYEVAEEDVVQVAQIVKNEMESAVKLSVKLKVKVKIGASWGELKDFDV
Chain of KRAS G12C (P01116 1-188 isoform P01116-2 G12C): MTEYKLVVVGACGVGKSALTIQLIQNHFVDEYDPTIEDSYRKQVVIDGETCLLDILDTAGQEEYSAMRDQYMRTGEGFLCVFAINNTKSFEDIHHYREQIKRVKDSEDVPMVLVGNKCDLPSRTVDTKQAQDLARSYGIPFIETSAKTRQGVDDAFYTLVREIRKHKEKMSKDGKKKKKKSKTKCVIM
Chain of KRAS WT (P01116 1-188 isoform P01116-2): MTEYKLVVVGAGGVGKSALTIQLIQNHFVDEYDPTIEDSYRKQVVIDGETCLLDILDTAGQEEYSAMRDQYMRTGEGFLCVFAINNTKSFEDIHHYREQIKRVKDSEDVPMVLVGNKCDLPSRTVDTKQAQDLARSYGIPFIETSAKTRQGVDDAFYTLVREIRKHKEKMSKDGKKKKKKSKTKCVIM
Chain of HDAC8 (Q9BY41 whole entry, species assumed): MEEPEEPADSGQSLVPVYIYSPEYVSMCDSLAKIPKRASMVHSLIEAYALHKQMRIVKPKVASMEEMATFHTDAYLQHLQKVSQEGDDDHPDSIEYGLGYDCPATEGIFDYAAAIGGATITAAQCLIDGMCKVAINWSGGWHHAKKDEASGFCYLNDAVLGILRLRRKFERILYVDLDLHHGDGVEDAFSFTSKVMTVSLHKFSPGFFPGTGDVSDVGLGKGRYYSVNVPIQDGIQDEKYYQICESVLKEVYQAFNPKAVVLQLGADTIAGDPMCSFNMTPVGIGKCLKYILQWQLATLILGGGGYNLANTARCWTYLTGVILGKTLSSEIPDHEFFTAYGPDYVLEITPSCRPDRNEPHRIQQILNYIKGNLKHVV
Chain of HDAC3 (O15379 whole entry, species assumed): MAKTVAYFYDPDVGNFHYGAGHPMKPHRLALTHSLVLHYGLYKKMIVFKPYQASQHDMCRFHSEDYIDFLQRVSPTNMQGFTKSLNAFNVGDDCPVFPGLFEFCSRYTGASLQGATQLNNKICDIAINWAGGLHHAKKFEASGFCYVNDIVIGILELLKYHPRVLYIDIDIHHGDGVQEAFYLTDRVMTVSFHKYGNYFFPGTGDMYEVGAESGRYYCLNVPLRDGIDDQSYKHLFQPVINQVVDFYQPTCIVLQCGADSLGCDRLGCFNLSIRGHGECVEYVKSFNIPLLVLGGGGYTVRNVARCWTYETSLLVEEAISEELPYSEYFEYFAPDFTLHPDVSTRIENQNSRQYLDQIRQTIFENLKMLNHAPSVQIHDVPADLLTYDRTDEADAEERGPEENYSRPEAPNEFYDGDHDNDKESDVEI
Chain of HDAC3 (Q9Y618 395-489 partner limits assumed, species assumed): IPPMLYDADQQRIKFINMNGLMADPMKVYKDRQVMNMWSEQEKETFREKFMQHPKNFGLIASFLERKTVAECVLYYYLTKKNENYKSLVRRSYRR
Chain of SHP2 D61G (Q06124 whole entry D61G): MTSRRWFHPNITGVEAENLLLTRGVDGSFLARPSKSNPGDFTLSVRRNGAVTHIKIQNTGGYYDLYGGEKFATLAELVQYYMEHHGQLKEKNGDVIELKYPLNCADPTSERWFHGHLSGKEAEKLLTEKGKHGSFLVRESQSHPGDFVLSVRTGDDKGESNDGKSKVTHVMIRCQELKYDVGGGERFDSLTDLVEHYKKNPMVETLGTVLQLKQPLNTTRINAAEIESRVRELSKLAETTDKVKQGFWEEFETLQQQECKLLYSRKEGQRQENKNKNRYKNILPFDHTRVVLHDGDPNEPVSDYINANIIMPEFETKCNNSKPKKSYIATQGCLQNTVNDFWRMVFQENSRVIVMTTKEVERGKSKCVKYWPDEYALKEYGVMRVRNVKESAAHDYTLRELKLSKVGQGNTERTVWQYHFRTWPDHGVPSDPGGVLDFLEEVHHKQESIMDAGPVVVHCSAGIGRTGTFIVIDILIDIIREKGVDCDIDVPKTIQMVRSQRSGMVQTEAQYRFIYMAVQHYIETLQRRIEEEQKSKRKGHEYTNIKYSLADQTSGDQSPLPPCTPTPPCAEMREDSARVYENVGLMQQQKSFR
Chain of CD73 (P21589 27-549, species assumed): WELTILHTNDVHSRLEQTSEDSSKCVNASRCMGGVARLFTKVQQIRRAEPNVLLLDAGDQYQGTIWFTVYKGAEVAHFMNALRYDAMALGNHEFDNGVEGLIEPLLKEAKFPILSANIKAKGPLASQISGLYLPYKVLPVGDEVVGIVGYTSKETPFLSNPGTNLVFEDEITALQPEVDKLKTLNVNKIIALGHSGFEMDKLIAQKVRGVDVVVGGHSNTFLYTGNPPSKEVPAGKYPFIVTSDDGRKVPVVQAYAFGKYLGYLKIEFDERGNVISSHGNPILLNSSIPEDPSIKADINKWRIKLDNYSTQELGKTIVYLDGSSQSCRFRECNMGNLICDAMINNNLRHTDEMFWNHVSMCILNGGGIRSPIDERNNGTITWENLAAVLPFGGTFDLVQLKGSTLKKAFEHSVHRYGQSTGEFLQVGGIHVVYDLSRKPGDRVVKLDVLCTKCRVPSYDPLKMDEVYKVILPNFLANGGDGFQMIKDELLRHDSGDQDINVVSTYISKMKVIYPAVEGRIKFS

Cc1c(F)c(N)cc(C(=O)Nc2cc(-n3cc(C(=O)N4CCN(C)CC4)nn3)c(F)cc2N2C[C@@H](C)N(C)[C@@H](C)C2)c1Cl [HYBI-084, 5-amino-2-chloro-4-fluoro-N-(4-fluoro-5-(4-(4-methylpiperazine-1-carbonyl)-1H-1,2,3-triazol-1-yl)-2-((3S,5R)-3,4,5-trimethylpiperazin-1-yl)phenyl)-3-methylbenzamide]
IC50 [1]: > 1000 nM
IC50 [2]: > 1000 nM
IC50 [3]: > 1000 nM
IC50 [4]: > 1000 nM
IC50 [5]: > 1000 nM
IC50 [6]: > 1000 nM
half-life at 1 μM ([7]; Mouse liver S9): > 2.42 h
microsomal CLint at 1 μM ([7]; Mouse liver S9): < 4.8 µL/min/mg
% Remaining after 60 min incubation ([7]; Mouse liver S9, 1 μM, 5 mM GSH, 37° C.): 110%
IC50 [8]: > 1000 nM
Relative Abundance (UV Peak Area % Total) [9]: 97.31%
IC50 [10]: > 1000 nM
IC50 [11]: > 1000 nM
IC50 [12]: > 1000 nM
IC50 [13]: > 1000 nM
IC50 [14]: > 1000 nM
Relative Abundance (UV Peak Area % Total) [15]: 34.68%
IC50 [16]: > 1000 nM
F ([17]; 1.5 mpk): 11.4%
F ([17]; 4.5 mpk): 37.7%
Cmax ([17]; 1.5 mg/kg, 1.5 mpk): 8.4 nM
Cmax ([17]; 4.5 mg/kg, 4.5 mpk): 47.6 nM
AUC(0-t) ([17]; 1.5 mg/kg, 1.5 mpk): 0.0466 µM·h
half-life ([17]; 1.5 mg/kg, 1.5 mpk): 7.5 h
AUC(0-t) ([17]; 4.5 mg/kg, 4.5 mpk): 0.459 µM·h
half-life ([17]; 4.5 mg/kg, 4.5 mpk): 6.3 h
F ([18]; 10 mpk): 26.3%
F ([18]; 30 mpk): 37.7%
Cmax ([18]; C57/B16, 10 mg/kg, 10 mpk): 359 nM
Cmax ([18]; C57/B16, 30 mg/kg, 30 mpk): 1280 nM
AUC(0-t) ([18]; 10 mg/kg, 10 mpk): 1.31 µM·h
half-life ([18]; 10 mg/kg, 10 mpk): 3.1 h
AUC(0-t) ([18]; 30 mg/kg, 30 mpk): 5.64 µM·h
half-life ([18]; 30 mg/kg, 30 mpk): 3.5 h
IC50 [19]: > 1000 nM
IC50 [20]: > 1000 nM
IC50 [21]: > 1000 nM
fraction unbound [22]: < 0.24
